Source: patent publication US11040029B2, “Methods for the administration of certain VMAT2 inhibitors” (Neurocrine Biosciences, Inc., priority 2017, dated 2021)
Entries after “also recorded” stand apart in the source; their conditions may differ. Read-outs that look alike come from different tables or passages of the source.

Key:
[1] = tested on: dopamine, serotonin and adrenergic receptor subtypes; assay: Detailed radioligand binding assays, monoamine receptors; details: for interaction with D1 and D2 receptors: radioligand binding assays and broad panel screen
human VMAT1 transporter = biological target: T1, human VMAT1 transporter (Homo sapiens, UniProt P54219); assay: Uptake in cells expressing VMAT1; format: cell-based; details: concentrations up to 10 μM
T1 construct: expressed in transfected cells
T1 sequence (P54219 1-525): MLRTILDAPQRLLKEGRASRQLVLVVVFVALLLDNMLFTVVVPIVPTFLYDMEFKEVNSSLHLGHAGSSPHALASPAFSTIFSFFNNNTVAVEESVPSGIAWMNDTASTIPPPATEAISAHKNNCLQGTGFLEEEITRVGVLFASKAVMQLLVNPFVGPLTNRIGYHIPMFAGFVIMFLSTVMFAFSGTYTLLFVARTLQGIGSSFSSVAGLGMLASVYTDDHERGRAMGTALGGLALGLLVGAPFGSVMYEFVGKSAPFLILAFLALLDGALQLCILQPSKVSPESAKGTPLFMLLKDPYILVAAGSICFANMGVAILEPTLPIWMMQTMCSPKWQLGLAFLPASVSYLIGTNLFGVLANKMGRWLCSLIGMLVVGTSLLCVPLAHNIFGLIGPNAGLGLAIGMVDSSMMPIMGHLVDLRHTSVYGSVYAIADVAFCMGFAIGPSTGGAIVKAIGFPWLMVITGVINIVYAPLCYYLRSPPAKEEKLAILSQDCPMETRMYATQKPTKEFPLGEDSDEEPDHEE

[2] = Prolactin release, in vivo surrogate measure
[3] = Healthy volunteer studies, coadministration of NBI-98854 with strong CYP2D6 inhibitors; format: in vivo, human; details: NBI-98854 coadministered with strong CYP2D6 inhibitors; preliminary data
[4] = Phase 3 clinical trial in tardive dyskinesia, plasma concentrations; format: in vivo, human; details: valbenazine 40 or 80 mg once daily, Weeks 2, 4, 6
Experimental: A Phase 3 clinical trial for patients with tardive dyskinesia (TD) and a psychiatric diagnosis (i.e., schizophrenia/schizoaffective disorder, mood disorder) who received once-daily valbenazine 40 or 80 mg for 6 weeks was also conducted.
Plasma samples for determination of plasma valbenazine and [+]-α-HTBZ concentrations were obtained at Weeks 2, 4, and 6. Plasma valbenazine and [+]-α-HTBZ concentrations were determined using validated HPLC-MS/MS methods. PK parameters were determined using standard non-compartmental methods. Dose-normalized plasma concentrations of valbenazine and [+]-α-HTBZ at Weeks 2, 4, and 6 in the subgroup of patients prescribed concomitant potent CYP2D6 inhibitors (paroxetine, fluoxetine, duloxetine, sertraline, or bupropion) were compared by t-test to respective concentrations in patients not receiving a CYP2D6 inhibitor.

[5] = tested on: more than 80 targets (GPCRs, cell-surface monoamine transporters, ion channels including HERG); assay: Cerep multi-target activity screen; format: binding; details: broad panel screen
[6] = Plasma concentrations of circulating metabolites of VBZ; format: in vivo; details: after VBZ
CYP2D6 [7] = details: both, human, microsomes, 1 μM, pH 7.4
Experimental: (§1) Incubation volumes were 250 μL for liver microsomes and 100 μL for hepatocytes. The liver microsomal incubation mixtures contained potassium phosphate buffer (50 mM, pH 7.4) with an NADPH-generating system which consisted of NADP (1 mM), glucose-6-phosphate (5 mM), MgCl2 (3 mM), EDTA (1 mM) and glucose-6-phosphate dehydrogenase (1 Unit/mL) at the final concentrations indicated. The hepatocyte incubation was in KHB buffer. Cryopreserved human hepatocytes were thawed according to the supplier's instruction, and pooled from three female donors. […] Aliquots of supernatant fractions were analyzed by an LC/MS/MS method using an Acquity UPLC liquid chromatography system with an Acquity BEH C18, 1.7 μm (2.1×100 mm) column and the MassLynx 4.1 with QuanLynx data acquisition and processing software, each available from Waters Corp., Milford, Mass.
(§2) Dextromethorphan was used as a positive control. Briefly, the concentration-time data were fitted by nonlinear regression with the following equation: Ct/C0=e^−kt where Ct is the substrate concentration at time t and C0 is the initial concentration (1 μM) at time 0. In the calculations, the area ratio of the substrate peak to an internal standard peak is proportional to the analyte concentration and used for regression analysis to get the value of k. Then the in vivo intrinsic clearance (CLint) can be predicted using the equations below with an assumption that C0 is much lower than Km, a constant that is equal to the substrate concentration at which an enzyme reaction proceeds at half the maximum velocity.

CYP2D6 [8] = details: female, human, hepatocytes, 1 μM
Experimental: as §1, §2

[9] = tested on: CYP2D6, CYP1A1, CYP1A2, CYP1B1, CYP3A4 and CYP3A5; details: 1 μM, pH 7.4
in vitro [10] = details: both, human, microsomes, pH 7.4
Experimental: as §1, §2

CYP2D6 [11] = assay: in vitro; details: both, human, microsomes, pH 7.4
Experimental: as §1, §2

in vitro [12] = details: female, human, hepatocytes
Experimental: as §1, §2

CYP2D6 [13] = assay: in vitro; details: female, human, hepatocytes
Experimental: as §1, §2

[14] = Metabolic stability in human liver microsomes with/without quinidine; details: both, human, microsomes, pH 7.4
Experimental: as §1, §2

CYP2D6 [15] = assay: as above
Experimental: as §1, §2

[16] = Metabolic stability in cryopreserved human hepatocytes with/without quinidine; details: female, human, hepatocytes
Experimental: as §1, §2

CYP2D6 [17] = assay: as above
Experimental: as §1, §2

[18] = in vivo; cited from earlier work
[19] = with concomitant CYP2D6 inhibitors
[20] = without concomitant CYP2D6 inhibitors

## COc1cc2c(cc1OC)[C@@H]1C[C@@H](O)[C@@H](CC(C)C)CN1CC2 [R,S,S-DHTBZ]
[1]
  interaction with D1 and D2 receptors: interact with D1 and D2 receptors

## COc1cc2c(cc1OC)C1CC(=O)C(CC(C)C)CN1CC2 (stereo not drawn) [TBZ, tetrabenazine, reference compound]
Human VMAT1 transporter
  inhibition of uptake through VMAT1: no significant inhibitory activity; also recorded: no significant effect
[2]
  increase in serum prolactin levels: increase in serum prolactin levels

## COc1cc2c(cc1OC)[C@H]1C[C@@H](O)[C@H](CC(C)C)CN1CC2 [R,R,R-DHTBZ, (2R,3R,11bR)-3-isobutyl-9,10-dimethoxy-1,3,4,6,7,11b-hexahydro-2H-pyrido[2,1-a]isoquinolin-2-ol]
[3]
  increase of area under the plasma concentration versus time curve (AUC): approximately 2 fold
  increase of maximum plasma concentration (Cmax): approximately 2 fold
[4]; [19]
  Mean (±SD) dose-normalized plasma concentration: 0.534 ± 0.321 ng/mL/mg
[4]; [20]
  Mean (±SD) dose-normalized plasma concentration: 0.513 ± 0.326 ng/mL/mg
[5]
  affinity for more than 80 binding sites: little to no affinity
Human VMAT1 transporter
  inhibition of uptake through VMAT1: no significant inhibitory activity; also recorded: no significant effect
[6]
  decline of plasma concentrations, half-life: half-lives similar to VBZ
CYP2D6 [7]
  % Contribution by CYP2D6: 62.6%
CYP2D6 [8]
  % Contribution by CYP2D6: 54.3%
[9]
  enzymes catalyzing oxidative metabolism in human liver: in part catalyzed by CYP2D6, with some contribution from CYP1A1, CYP1A2, CYP1B1, CYP3A4 and CYP3A5
In vitro [10]
  CLint scaled at 1 μM: 10.4 mL/min/kg
CYP2D6 [11]
  CLint scaled at 1 μM: 3.9 mL/min/kg
In vitro [12]
  CLint scaled at 1 μM: 8.8 mL/min/kg
CYP2D6 [13]
  CLint scaled at 1 μM: 4 mL/min/kg
[1]
  specificity for VMAT2 versus monoamine receptor subtypes: high specificity

## COc1cc2c(cc1OC)[C@@H]1C[C@H](O)[C@@H](CC(C)C)CN1CC2 [S,S,S-DHTBZ]
[1]
  interaction with D1 and D2 receptors: interact with D1 and D2 receptors

## COC(=O)[C@H]1[C@H]2C[C@@H]3c4[nH]c5cc(OC)ccc5c4CCN3C[C@H]2C[C@@H](OC(=O)c2cc(OC)c(OC)c(OC)c2)[C@@H]1OC [reserpine, reference compound]
Human VMAT1 transporter
  inhibition of uptake through VMAT1: substantially inhibited uptake through VMAT1

## COc1cc2c(cc1OC)[C@H]1C[C@@H](OC(=O)[C@@H](N)C(C)C)[C@H](CC(C)C)CN1CC2 [Valbenazine, (S)-2-amino-3-methyl-butyric acid (2R,3R,11bR)-3-isobutyl-9,10-dimethoxy-1,3,4,6,7,11b-hexahydro-2H-pyrido[2,1-a]isoquinolin-2-yl ester]
[4]; [19]
  Mean (±SD) dose-normalized plasma concentration: 3.375 ± 2.037 ng/mL/mg
[4]; [20]
  Mean (±SD) dose-normalized plasma concentration: 3.683 ± 2.360 ng/mL/mg
[5]
  affinity for more than 80 binding sites: little to no affinity
Human VMAT1 transporter; listed as VBZ
  inhibition of uptake through VMAT1: no significant inhibitory activity; also recorded: no significant effect

## COc1cc2c(cc1OC)[C@H]1C[C@@H](OC(=O)[C@@H](N)C(C)(C)O)[C@H](CC(C)C)CN1CC2 [NBI-136110]
[5]
  affinity for more than 80 binding sites: little to no affinity
Human VMAT1 transporter
  inhibition of uptake through VMAT1: no significant inhibitory activity; also recorded: no significant effect
[6]
  decline of plasma concentrations, half-life: half-lives similar to VBZ

## COc1ccc2c(c1)[C@]13CCCC[C@@H]1[C@H](C2)N(C)CC3 [Dextromethorphan]
[14]
  CLint scaled at 1 μM: 50 mL/min/kg
CYP2D6 [15]; both, human, microsomes, pH 7.4
  CLint scaled at 1 μM: 8 mL/min/kg
CYP2D6 [15]; human liver microsomes
  % Contribution by CYP2D6: 84.0%
CYP2D6 [15]; quinidine 3 μM, text summary for microsomes and hepatocytes
  inhibition of intrinsic clearance in the presence of quinidine: more than 80%
[16]
  CLint scaled at 1 μM: 22.6 mL/min/kg
CYP2D6 [17]; female, human, hepatocytes
  CLint scaled at 1 μM: 3.23 mL/min/kg
CYP2D6 [17]; human hepatocytes
  % Contribution by CYP2D6: 85.8%

## α-dihydrotetrabenazine
[18]
  increase of AUC: ~3 fold
  increase of Cmax: approximately 30%
